Values joined by “and” are separate entries in the source; they are usually repeats but may differ in a detail not shown here. Identical values can stand only once. Like-named read-outs stand apart in the source and are kept apart here.
How the values were obtained:
[1] = system: whole animal tumor models; settings: a number of whole animal tumor models; cited from earlier work
HL60 = test: In vitro antiproliferative MTT assay in HL60, 24 h endpoint; type: cell-based, human; settings: triplicate determination; for IC50: read-out: IC50 (μM) ± S.D. in HL60
Description: In vitro proliferation assay. Approximately 3 000-5 000 (15 000 cells for HL-60) exponentially growing cells were seeded in each well of a 96-well plate with 50 μl of medium and were allowed to adhere overnight. Cells were then treated with each compound at concentrations ranging from 0.01-10 μM giving the final volume of 100 μl in each well. At the end of incubation period, 15 μl of MTT solution (5.0 mg/ml in PBS) was added and incubated for an additional 4 h. Medium and excessive MTT were aspirated and formazan formed was solubilized with 100 μl of DMSO. Absorbance, as a measurement of viable cell number was read at 570 nm with ThermoLabsystems OpsysMR microplate spectrometer. At least three independent experiments were performed and results are presented as an average.

HK1 = test: In vitro anti-proliferative MTT assay, 48 h, HK1; type: cell-based, human; settings: HK1, nasopharyngeal, 48 h post-treatment, read-out: IC50 (μM) ± S.D., HK1
Description: (§1) In vitro proliferation assay.

MCF-7 = test: In vitro anti-proliferative MTT assay, 48 h, MCF-7; type: cell-based, human; settings: MCF-7, breast, 48 h post-treatment, read-out: IC50 (μM) ± S.D., MCF-7
Description: as §1

OKF6 = test: In vitro anti-proliferative MTT assay, 48 h, OKF6 immortalized normal oral keratinocytes; type: cell-based; settings: immortalized normal human epithelial cells, read-out: IC50 (μM) ± S.D., OKF6
Description: as §1

NP69 = test: In vitro anti-proliferative MTT assay, 48 h, NP69 immortalized normal nasopharyngeal epithelial cells; type: cell-based; settings: immortalized normal human epithelial cells, read-out: IC50 (μM) ± S.D., NP69
Description: as §1

HCT116 = test: In vitro anti-proliferative MTT assay, 48 h, HCT116; type: cell-based, human; settings: HCT116, colon, 48 h post-treatment, read-out: IC50 (μM) ± S.D., HCT116
Description: as §1

HSC2 = test: In vitro anti-proliferative MTT assay, 48 h, HSC2; type: cell-based, human; settings: HSC2, oral, 48 h post-treatment, read-out: IC50 (μM) ± S.D., HSC2
Description: as §1

[2] = Fluorescence quantum yield; type: physicochemical; settings: for fluorescence quantum yield: in ethanol, unpublished data
Description: Steady-state fluorescence spectroscopic studies were performed on a Cary Eclipse fluorometer. The slit width was 5 nm for both excitation and emission. The relative quantum yields of the samples were obtained by comparing the area under the corrected emission spectrum of the test sample with that of a standard. The quantum efficiencies of fluorescence were obtained from multiple measurements (N=3) with the following equation:
Φx=Φst(Ix/Ist)(Ast/Ax)(ηx^2/ηst^2)
Where Φst is the reported quantum yield of the standard, I is the area under the emission spectra, A is the absorption at the excitation wavelength and η is the refractive index of the solvent used, measured on a pocket refractometer from ATAGO. X subscript denotes test sample, and st denotes standard.

HSC2 cells [3] = settings: IC50 concentration (0.25 μM), 4 h to 48 h
Description: Cell cycle analysis. HSC2 cells were treated and collected as above. Cells were then fixed in 70% ice-cold ethanol (v/v in PBS) overnight at 4° C. Following fixation, the cells were washed twice in cold PBS. The pellet was then resuspended in PBS solution containing 20 μg/ml RNase A and 1 μM SYTOX Green for 30 min. The cells were analysed on a FACSCalibur flow cytometer with 488 nm argon laser. The DNA-SYTOX Green fluorescence of 10 000 cells were collected with the FL1 detector with 530/30 band pass filter.

HSC2 cells [4] = settings: 0.5 μM
Description: AnnexinV-FITC apoptosis analysis. HSC2 cells grown in 60-mm dishes at 50% confluency were treated with 0.5 μM of compound 11. At various treatment intervals, floating cells in the medium were pooled together with the adherent cells after trypsinization and were washed twice with cold PBS. The cells were resuspended with 1× binding buffer at 1×10^6 cells/ml. A 100 μl of cell suspension was transferred to a 5 ml tube followed by […] of AnnexinV-FITC and […] of propidium iodide (200 μg/ml in PBS). The cells were gently mixed and incubated for 15 min at RT in the dark before analysed on a FACSCalibur flow cytometer with 488 nm argon laser. The fluorescence data of 10 000 cells were collected with the FL1 detector with 530/30 band pass filter to collect Annexin-FITC fluorescence, and the FL3 detector with a 630 nm long pass filter to collect propidium iodide fluorescence.

HSC2 cells [5] = settings: 100 nM
Description: Cellular localization. HSC2 cells grown on round glass coverslips in 12-well plate were co-incubated with 100 nM of compound 11 together with organelle-specific fluorescence probes. The endoplasmic reticulum was labeled with 100 nM of ER-Tracker Blue-White DPX, the lysosomes were stained with 500 nM of LysoTracker Blue DND-22, and the mitochrondria was tracked with 100 nM of Rh123 respectively for 15-30 min of incubation at room temperature. After incubation, cells were gently rinsed in PBS to remove free dyes, and the stained cells were observed using Olympus DSU spinning disk confocal microscope configured with a PlanApo x63 oil objective and iXon EM+(Andor Technology) digital camera. Fluorescent images of X-Y sections at 0.2 μm were collected sequentially using Olympus Cell^R software. Organelle-specific fluorescence probes were respectively excited at 365 nm to illuminate ER-tracker and LysoTracker, at 494 nm for Rh123 and at 575 nm for compound 11.

[6] = system: A6-derived subcutaneous tumors; settings: nude mice, intraperitoneal injection; cited from earlier work
[7] = system: transformed mouse mammary epithelial cells; settings: cells with increased mitochondrial transmembrane potential; cited from earlier work
carcinoma = settings: cited from earlier work
cancer cells = settings: cited from earlier work
carcinoma cell types = settings: in vitro; cited from earlier work
[8] = system: non-tumorigenic epithelial cell types; settings: in vitro, similar concentrations; cited from earlier work
[9] = Homo sapiens, HL-60, HL60, 24 h post-treatment

In the case of “3-ethyl-3′-methyl-thiatelluracarbocyanine iodide”, the “activity in whole animal tumor models” value [1] is given as “anti-carcinoma activity”.
With `Cc1ccccc1-c1c2ccc(=[N+]3CCCC3)cc-2oc2cc(N3CCCC3)ccc12` [Compound 1] the IC50 (HL60; HL60, 24 h post-treatment) was 0.72 ± 0.09 µM.
`Cc1ccccc1-c1c2ccc(=[N+]3CCCCC3)cc-2oc2cc(N3CCCCC3)ccc12` [Compound 2] gave an IC50 (HL60; HL60, 24 h post-treatment) of 0.76 ± 0.03 µM.
For `Cc1ccccc1-c1c2ccc(=[N+]3CCOCC3)cc-2oc2cc(N3CCCCC3)ccc12.[Cl-]` [Compound 3], the “IC50 (μM) ± S.D. in HL60” value (HL60; HL60, 24 h post-treatment) was “lowest IC50 value among compounds 1-6” and the IC50 (HL60; HL60, 24 h post-treatment) was 0.35 ± 0.01 µM.
For `Cc1ccccc1-c1c2ccc(=[N+]3CCOCC3)cc-2oc2cc(N3CCOCC3)ccc12.[Cl-]` [Compound 4], the “IC50 (μM) ± S.D. in HL60” value (HL60; HL60, 24 h post-treatment) was “moderate to poor activity” and the IC50 (HL60; HL60, 24 h post-treatment) was 8.27 µM.
Compound `Cc1ccccc1-c1c2ccc(=[N+]3CCN(C(=O)OC(C)(C)C)CC3)cc-2oc2cc(N3CCN(C(=O)OC(C)(C)C)CC3)ccc12` [Compound 5] has an IC50 (HL60; HL60, 24 h post-treatment) of 0.62 ± 0.07 µM.
With `Cc1ccccc1-c1c2ccc(=[N+]3CCNCC3)cc-2oc2cc(N3CCNCC3)ccc12.[Cl-]` [Compound 6] the “IC50 (μM) ± S.D. in HL60” value (HL60; HL60, 24 h post-treatment) was “moderate to poor activity” and the IC50 (HL60; HL60, 24 h post-treatment) was 36.7 µM and 53.3 µM.
In the case of `Cc1c2ccc(=[N+]3CCCCC3)cc-2oc2cc(N3CCCCC3)ccc12.[Cl-]` [Compound 7], the “IC50 (μM) ± S.D. in HL60” value (HL60; HL60, 24 h post-treatment) is reported as “moderate to poor activity” and the IC50 (HL60; HL60, 24 h post-treatment) is reported as 3.86 ± 1.46 µM.
`c1ccc(Cc2c3ccc(=[N+]4CCCCC4)cc-3oc3cc(N4CCCCC4)ccc23)cc1` [Compound 8] gave an IC50 (HL60; HL60, 24 h post-treatment) of 0.82 ± 0.04 µM.
Work on `[Cl-].c1csc(-c2c3ccc(=[N+]4CCCCC4)cc-3oc3cc(N4CCCCC4)ccc23)c1` [Compound 10] yielded an IC50 (HK1) of 0.09 ± 0.01 µM, an IC50 (MCF-7) of 0.27 ± 0.16 µM and an IC50 (OKF6) of 0.25 ± 0.1 µM. For the same compound, the IC50 (NP69) was 0.33 ± 0.2 µM, the IC50 (HCT116) was 0.15 ± 0.06 µM and the IC50 (HSC2) was 0.12 ± 0.09 µM. The fluorescence quantum yield [2] was 0.10 ± 0.01 and the IC50 (HL60; HL60, 24 h post-treatment) was 0.1 µM.
In the case of `Ic1ccc(-c2c3ccc(=[N+]4CCCCC4)cc-3oc3cc(N4CCCCC4)ccc23)cc1.[Cl-]` [Compound 11], the IC50 (HK1) is reported as 0.42 ± 0.06 µM, the IC50 (MCF-7) is reported as 0.39 ± 0.22 µM and the cell cycle profile (HSC2 cells [3]) is reported as “remained unchanged”. The IC50 (OKF6) was 0.41 ± 0.07 µM, the IC50 (NP69) was 0.51 ± 0.16 µM and the “cells staining positive for annexin V” value (HSC2 cells [4]; 0 h or 4 h time-points) was “less than 10%”. The “cells staining positive for annexin V” value (HSC2 cells [4]; 8 h of compound incubation) was 16%, the “proportion of cells undergoing apoptosis” value (HSC2 cells [4]; within 24 h) was 58% and the IC50 (HCT116) was 0.39 ± 0.11 µM. The “presence of compound in the nucleus” value (HSC2 cells [5]) was “remained free of compound 11”, the “staining of the cytoplasmic or nuclear membrane” value (HSC2 cells [5]) was “not detected” and the “co-localisation with ER and lysosomes” value (HSC2 cells [5]; ER-Tracker and LysoTracker) was “only partial co-localisation”. For the same compound, the IC50 (HSC2) was 0.25 ± 0.12 µM, the fluorescence quantum yield [2] was 0.28 ± 0.01 and the IC50 (HL60; HL60, 24 h post-treatment) was 0.09 µM.
`COc1ccc(-c2c3ccc(=[N+]4CCCCC4)cc-3oc3cc(N4CCCCC4)ccc23)cc1` [Compound 12] gave an IC50 (HL60; HL60, 24 h post-treatment) of 0.66 ± 0.17 µM.
In the case of `COc1ccccc1-c1c2ccc(=[N+]3CCCCC3)cc-2oc2cc(N3CCCCC3)ccc12` [Compound 13], the IC50 (HL60; HL60, 24 h post-treatment) is reported as 0.95 ± 0.01 µM.
In the case of `COc1cccc(OC)c1-c1c2ccc(=[N+]3CCCCC3)cc-2oc2cc(N3CCCCC3)ccc12` [Compound 14], the IC50 (HL60; HL60, 24 h post-treatment) is reported as 0.25 ± 0.22 µM.
In the case of `Oc1cccc(O)c1-c1c2ccc(=[N+]3CCCCC3)cc-2oc2cc(N3CCCCC3)ccc12` [Compound 15], the “IC50 (μM) ± S.D. in HL60” value (HL60; HL60, 24 h post-treatment) is reported as “moderate to poor activity” and the IC50 (HL60; [9]) is reported as 2.91 ± 1.86 µM.
In the case of `O=C(O)COc1cccc(OCC(=O)O)c1-c1c2ccc(=[N+]3CCCCC3)cc-2oc2cc(N3CCCCC3)ccc12` [Compound 16], the quantum yield ([2]; in phosphate buffer) is reported as 0.13, the “IC50 (μM) ± S.D. in HL60” value (HL60; HL60, 24 h post-treatment) is reported as “moderate to poor activity” and the IC50 (HL60; [9]) is reported as greater than 100 µM.
In the case of `C[n+]1ccc(/C=C/c2c[nH]c3ccccc23)cc1.[I-]` [Compound F16], the “growth of A6-derived subcutaneous tumors” value [6] is given as “retard the growth” and the “proliferation of transformed mouse mammary epithelial cells” value [7] is given as “selectively inhibited proliferation”.
In the case of `CCn1c(=O)/c(=C2\Sc3ccccc3N2C)s/c1=C\c1cccc[n+]1CC.[Cl-]` [MKT-077], the “accumulation in tumor cell mitochondria” value (carcinoma; clinical study) is given as “preferentially accumulated in tumor cell mitochondria”, the clinical efficacy (carcinoma; phase II, approved dosage and drug regimen) is given as “lack of efficacy” and the “growth of cancer cells in vitro and in vivo” value (cancer cells) is given as “significantly inhibit growth”.
For `COC(=O)c1ccccc1-c1c2ccc(=N)cc-2oc2cc(N)ccc12.Cl` [Rh123, rhodamine 123, reference compound], the IC50 (HK1) is given as 5.86 ± 0.15 µM, the IC50 (MCF-7) is given as 5.61 ± 0.61 µM and the “carcinoma cell types in which cell death was markedly induced” value (carcinoma cell types) is given as 9/9. For the same compound, the IC50 (OKF6) was 9.84 ± 3.46 µM, the IC50 (NP69) was 6.28 ± 0.21 µM and the IC50 (HCT116) was 7.92 ± 0.95 µM. The IC50 (HSC2) was 4.48 ± 2.23 µM and the “non-tumorigenic epithelial cell types that remained unaffected” value [8] was 6/6.
In the case of `Cc1cc(N)c2ccccc2[n+]1CCCCCCCCCC[n+]1c(C)cc(N)c2ccccc21` [dequalinium chloride], the “activity in whole animal tumor models” value [1] is given as “anti-carcinoma activity”.
